# Test results as given in paper PMC8389922, “First-in-Class Cyclic Temporin L Analogue: Design, Synthesis, and Antimicrobial Assessment” (Journal of Medicinal Chemistry, 2021).
# Bridge positions count the residues as written; N and C are the ends. Square brackets hold non-standard residues; d marks the D form. Peptide text beside a SMILES is read from it.
# Columns and labels:
# circular dichroism = settings: water; pH ns; 25 °C; 50 uM
# S. aureus ATCC 25923 = format: cell-based, Staphylococcus aureus
# Procedure: (§1) The antimicrobial activity of peptides 9–26 was assessed against a range of reference bacterial strains such as S. aureus ATCC 25923, Staphylococcus epidermidis ATCC 12228, Bacillus megaterium Bm11, E. coli ATCC 25922, P. aeruginosa ATCC 27853, and A. baumannii ATCC 19606 by the broth microdilution assay to determine the minimal growth inhibitory concentration (MIC, Table 1).[59] First, we evaluated the effects produced by the lactam bridge between Lys and Glu residues placed at different positions along the peptide sequence of reference 9. […] When the i,i+7 cyclization strategy was applied (20–23), a dramatic decrease of bacterial inhibition activity was observed. Specifically, the peptides 20, 22, and 23 only affected the microbial growth of the Gram-positive B. megaterium Bm11, at 12.5 μM. […] Peptide 25, which differs from 9 by the presence of an olefin bridge rather than lactam one, dramatically lost the activity (MIC > 100 μM) vs both Gram-positive and Gram-negative strains.
# (§2) The determination of MICs was conducted as previously reported.[61] Aliquots of 50 μL of bacterial culture appropriately diluted were added to each well of a 96-well plate to reach a final cell density of 1 × 10^6 CFU/mL and a final peptide concentration ranging from 100 to 0.78 μM (final volume 100 μL).
# [1] = test system: S. epidermidis ATCC 12228; format: cell-based, Staphylococcus epidermidis
# Procedure: as §1, §2
# B. megaterium Bm11 = format: cell-based, Bacillus megaterium
# Procedure: as §1, §2
# E. coli ATCC 25922 = format: cell-based, Escherichia coli
# Procedure: as §1, §2
# P. aeruginosa ATCC 27853 = format: cell-based, Pseudomonas aeruginosa
# Procedure: as §1, §2
# A. baumannii ATCC 19606 = format: cell-based, Acinetobacter baumannii
# Procedure: as §1, §2
# [2] = test system: HaCaT cells (human immortalized keratinocytes); test: Cytotoxicity, MTT assay; format: cell-based; settings: vs untreated control
# Procedure: In particular, the cytotoxicity was evaluated by the 3-(4,5-dimethylthiazol-2-yl)-2,5-diphenyltetrazolium bromide (MTT) assay and is expressed as the percentage of viability of peptide-treated cells compared to that of untreated control cells. As expected, after 2 and 24 h treatments, the cell viability decreased in a concentration-dependent manner for all peptides (Figure 2).
# Figure 2 Viability of peptide-treated HaCaT cells evaluated by MTT assay at 2 h (a) and 24 h (b). All data are expressed as a percentage with respect to the untreated control cells and are the mean of three independent experiments ± standard error of the mean (SEM).
# The human immortalized keratinocytes HaCaT cells (AddexBio, San Diego, CA) were cultured in Dulbecco’s modified Eagle’s medium containing 4 mM glutamine (DMEMg), supplemented with 10% heat-inactivated fetal bovine serum (FBS) and 0.1 mg/mL of penicillin and streptomycin, at 37 °C and 5% CO2, in 25 or 75 cm^2 flasks.
# The quantification of cell viability was performed by the in vitro MTT [3-(4,5-dimethylthiazol-2-yl)-2,5-diphenyltetrazolium bromide] assay, as previously reported,[77] measuring the conversion of the soluble yellow dye MTT to insoluble purple formazan by mitochondrial dehydrogenases. More precisely, 4 × 10^4 HaCaT cells, suspended in DMEMg supplemented with 2% FBS without antibiotics, were plated in each well of the 96-well plate. After overnight incubation at 37 °C and 5% CO2, the medium of each well was replaced by DMEMg containing the peptide at different concentrations, as indicated. Controls were HaCaT cells not treated with the peptide. After 2 and 24 h of incubation at 37 °C and 5% CO2, the medium was discarded; 0.5 mg/mL of MTT in Hank’s buffer was added to each well, and the plate was incubated for further 4 h. Acidified isopropanol was then added to dissolve formazan crystals, and the absorbance of each well at 570 nm was measured using a microplate reader (Infinite M200; Tecan, Salzburg, Austria). The purple color intensity is directly proportional to the number of viable cells, which was expressed as a percentage compared to that of untreated control cells (100%).
# [3] = CD spectroscopy, secondary structure content (DichroWeb); format: physicochemical
# Procedure: The secondary structures of the linear peptide 9 and its stapled analogues 12, 17, and 24–26 were explored by circular dichroism (CD). CD spectroscopy studies were performed in water, and SDS or DPC micelles (20 mM) were used as mimics of the bacterial or mammalian membranes, respectively.[60]
# The secondary structure content was predicted based on the CD spectra from 190 to 260 nm using the online server for protein secondary structure analyses, DichroWeb.[61] […] The hydrocarbon-bridged peptide 25 was slightly helical and structured in water, with weak ellipticity at 220 nm. Peptide 25 contains ∼13% regular helix and ∼10% distorted helix, according to the DichroWeb prediction.
# All spectra were measured in the 260–190 nm spectral range, 1 nm bandwidth, 4 accumulations, and 100 nm/min scanning speed.[60] Each peptide was dissolved in water to prepare a 1 mM peptide stock solution. The CD spectra were performed in water, in SDS (20 mM) and in DPC (20 mM) using a peptide concentration of 50 μM. The secondary structure content of the peptides was predicted using the online server for protein secondary structure analyses DichroWeb.[61] Input and output units and the wavelength step were θ (mdeg) and 1.0 nm, respectively. The algorithm used was CONTIN-LL,[83] and reference database was set-7. When we have NRMSD > 0.100, we used the CDSSTR method.[83]
# [4] = CD in DPC micelles (20 mM), peptide 50 μM, 25 °C, DichroWeb
# [5] = CD in SDS micelles (20 mM), peptide 50 μM, 25 °C, DichroWeb
# [6] = CD in water, peptide 50 μM, 25 °C, DichroWeb
# [7] = CD in water, peptide 50 μM, 25 °C, DichroWeb (CONTIN-LL, set-7; CDSSTR if NRMSD > 0.100)
SMILES,helicity (circular dichroism) [%],MIC S. aureus ATCC 25923 (S. aureus ATCC 25923) [µM],MIC S. epidermidis ATCC 12228 [1] [µM],MIC B. megaterium Bm11 (B. megaterium Bm11) [µM],MIC E. coli ATCC 25922 (E. coli ATCC 25922) [µM],MIC P. aeruginosa ATCC 27853 (P. aeruginosa ATCC 27853) [µM],MIC A. baumannii ATCC 19606 (A. baumannii ATCC 19606) [µM],"helix-1 (regular α-helix) [3, 4] [%]","helix-2 (distorted α-helix) [3, 4] [%]","random [3, 4] [%]","β-strand-1 (regular β-strand) [3, 4] [%]","β-strand-2 (distorted β-strand) [3, 4] [%]","β-turn [3, 4] [%]","helix-1 (regular α-helix) [3, 5] [%]","helix-2 (distorted α-helix) [3, 5] [%]","random [3, 5] [%]","β-strand-1 (regular β-strand) [3, 5] [%]","β-strand-2 (distorted β-strand) [3, 5] [%]","β-turn [3, 5] [%]","helix-2 (distorted α-helix) [3, 6] [%]",also measured
CC[C@H](C)[C@H](NC(=O)[C@H](CCCNC(=N)N)NC(=O)[C@@H]1CCCCNC(=O)CC[C@H](NC(=O)[C@H](Cc2ccccc2)NC(=O)[C@H](Cc2c[nH]c3ccccc23)NC(=O)[C@@H]2CCCN2C(=O)[C@@H](NC(=O)[C@@H](N)Cc2ccccc2)C(C)C)C(=O)N[C@@H](CCCCN)C(=O)N[C@@H](Cc2ccccc2)C(=O)N[C@H](CC(C)C)C(=O)N1)C(=O)N[C@@H](CC(C)C)C(N)=O [compound 24] (H-FVPWFEKF[dL]KRIL-NH2; lactam 6-10),7,3.12,1.56,1.56,25,>100,3.12,69,23,0,0,3,4,59,18,0,11,5,7,6,"HaCaT cell viability ([2]; 2 h treatment, 25 μM, mean of three independent experiments): 60–70%; HaCaT cell viability ([2]; 2 h treatment, 50 μM, mean of three independent experiments): less than 40%; HaCaT cell viability ([2]; 24 h treatment (sentence continues from 50 μM)): less than 20%; helix percentage (total) in SDS solution ([3]; CD in SDS micelles (20 mM), DichroWeb, regular plus distorted helix): about 80%; random [3, 6]: 50%; β-strand-1 (regular β-strand) [3, 6]: 16%; β-strand-2 (distorted β-strand) [3, 6]: 9%; β-turn [3, 6]: 17%; helix-1 (regular α-helix) [3, 7]: 1%"
CC[C@H](C)[C@H](NC(=O)[C@H](CCCNC(=N)N)NC(=O)[C@]1(C)CCCC=CCCC[C@](C)(NC(=O)[C@H](Cc2ccccc2)NC(=O)[C@H](Cc2c[nH]c3ccccc23)NC(=O)[C@@H]2CCCN2C(=O)[C@@H](NC(=O)[C@@H](N)Cc2ccccc2)C(C)C)C(=O)N[C@@H](CCCCN)C(=O)N[C@@H](Cc2ccccc2)C(=O)N[C@H](CC(C)C)C(=O)N1)C(=O)N[C@@H](CC(C)C)C(N)=O [compound 25],23,>100,>100,100,>100,>100,>100,54,34,0,0,7,5,41,22,28,0,4,5,10,"aggregation in water (shape of CD spectrum) ([3]; CD in water, peptide 50 μM, 25 °C): form α-helical aggregates; random [3, 6]: 41%; β-strand-1 (regular β-strand) [3, 6]: 12%; β-strand-2 (distorted β-strand) [3, 6]: 8%; β-turn [3, 6]: 16%; helix-1 (regular α-helix) [3, 7]: 13%"
